Molecules are shown by their SMILES.

Data set [1] can be described thus: Effect of Compound 3 on steady-state pharmacokinetics of olanzapine. The format is in vivo, human. The following applies: 200 mg Compound 3 BID with 10 mg olanzapine; days 8 and 15. As for the experimental part: Postprandial triglycerides and lipid profiles were assessed on study days 1, 8, and 15, olanzapine pharmacokinetics was assessed on study days 8 and 15, and safety and tolerability were assessed throughout. On each of these study days, subjects consumed a standardized breakfast (˜900 kcal; 55% of kcal from fat) in 15 minutes. Blood samples were drawn prior to meal consumption and 1, 2, 3, 4, 6 and 8 hours after initiation of meal.

Data set [2] can be described thus: Lipid profile and glucose. The conditions noted are these: for glucose: olanzapine study, healthy volunteers.
Data set [3] is described as follows: Body weight change during olanzapine treatment.
A short description of data set [4]: Postprandial triglycerides after a standardized breakfast in subjects treated with olanzapine. The conditions noted are these: normal healthy volunteers; 10 mg olanzapine alone, or 10 mg olanzapine + 200 mg Compound 3 BID (days 8-15).
For data set [5] the following is noted: in vivo.

For `COc1cccc(C(=O)Nc2ccc3c(c2)CCN(C(=O)Oc2ccccc2)C3)c1-c1ccc(C(F)(F)F)cc1` [Compound 3], the “impact on the pharmacokinetic profile of olanzapine” value in data set [1] is “did not significantly impact”. In data set [2] (Day 9-15, olanzapine alone vs olanzapine + Compound 3), the LDL-C result is on record as “blunted”. Moreover, the glucose entry in data set [2] is listed as “No changes in glucose were observed”. The “blunting of body weight gain from olanzapine” value in data set [3] (second week of the study, 10 mg olanzapine + 200 mg Compound 3 BID) is given as “significant blunting in body weight gain”. In addition, in data set [4], the postprandial triglycerides result is “greatly reduced postprandial triglycerides”.
For `Cc1cc2c(s1)Nc1ccccc1N=C2N1CCN(C)CC1` [olanzapine, reference compound], the “SAEs, fatal events, discontinuations due to adverse events” value in data set [5] is “No SAEs, fatal events, or discontinuations due to adverse events”. Also, the glucose entry in data set [2] is given as “No changes in glucose were observed”. Also, the “weight gain during the first week of treatment” value in data set [3] (normal healthy volunteers, 10 mg olanzapine alone, first week) was “significant weight gain”.

The values are drawn from patent US12453728B1, “Compositions comprising inhibitors of microsomal triglyceride transfer protein and Apo-B secretion” (Redux Therapeutics, LLC, priority 2024, dated 2025).
